{"source": "patent US20230404928A1", "about": "“NANOCAPSULE AND USES THEREOF” (CHINA MEDICAL UNIVERSITY, priority 2022, published 2023)", "key": {"[1]": {"test": "thrombolysis time and cerebral blood flow after MCAO", "type": "in vivo, mice", "settings": "thrombus not completely dissolved"}, "[2]": {"tested_on": "MACO mice", "test": "thrombolysis time and cerebral blood flow after MCAO", "type": "in vivo"}, "[3]": {"test": "drug release behavior study (rtPA release)", "type": "physicochemical", "settings": "in the first hour", "method": "To measure the loading of rtPA (rtPA-FANC=(MTDS)) in FANC, analysis using […] protein analysis (BCA) was performed. The encapsulation efficiency (EE) of rtPA in FANC is 73.94% and the loading capacity (LC) is 22.49%. To observe the rtPA release rate of FANC, further drug release behavior studies were conducted. […] This slower release behavior can effectively protect rtPA from metabolic effects and reduce the damage caused in the blood circulation system."}, "[4]": {"tested_on": "neural precursor cells (NPCs)", "test": "Ki-67 immunohistochemistry of brain sections (NPC proliferation, SVZ and HDG)", "type": "in vivo, mice", "settings": "SVZ and HDG areas, versus saline control", "source_text": "FIGS. 9A to 9D show representative images of Ki-67 staining after MTDS with MN treatment in comparison with saline control, free rt-PA, MTDS in SVZ area (FIG. 9A) and HDG area (FIG. 9B). (Scale bar=50 μm). Quantitative data of NPCs by immunohistochemistry staining in SVZ area (FIG. 9C) (Ki-67^+ cells) and HDG area (FIG. 9D) (Ki-67^+ cells).\nThe subventricular zone (SVZ) and hippocampal dentate gyrus (DG) are known to trigger the activation of resting neural precursor cells (NPCs) when the brain suffers from ischemic injury. NPCs mainly reside in the SVZ, while the DG has the ability to differentiate into a range of neurons and glial cells."}}, "data": [{"substance": "recombinant tissue-type plasminogen activator [rtPA]", "values": [{"measurement": "CBF recovery, maximum", "setting": "[1]", "result": "≤ 90", "unit": "%"}, {"measurement": "thrombolytic activity", "setting": "[2]; FIG. 8a, right MCA images", "result": "able to dissolve the thrombus"}, {"measurement": "time to partial thrombolysis", "setting": "[2]; rtPA 10 mg kg^−1", "result": "approximately 80 minutes"}, {"measurement": "blood flow restored (CBF)", "setting": "[2]; within 120 minutes, rtPA 10 mg kg^−1", "result": "approximately 80%"}, {"measurement": "rtPA release", "setting": "[3]", "result": "more than 60%"}, {"measurement": "number of Ki-67^+ cells", "setting": "[4]", "result": "no significant difference"}]}]}
